# Assay results taken from patent US20160074399A1, “Salts of an Epidermal Growth Factor Receptor Kinase Inhibitor” (Clovis Oncology, Inc., priority 2013, published 2016).
# Experiment: Competitive slurry experiments Form I vs. Form III
# Format: physicochemical
# Details: ca. 3 days
# Method: Competitive slurry experiments were set up in acetone, isopropanol, acetone:water (80:20) and isopropyl acetate at both room temperature (ca. 22° C.) and 60° C. Approximately 200 mg of each of Forms I and III material was placed into a vial and 4 mL of the appropriate solvent system was added to produce a slurry. For each experiment, the slurries were allowed to stir for ca. 3 days. Analysis by XRPD was then conducted to determine the form of the resultant solid. Competitive slurry experiments of Form I vs. Form III were carried out in 4 solvent systems and resulting solids were analysed by XRPD analysis (FIG. 82 and FIG. 83).
compound,measurement,setting,value
Br.C=CC(=O)Nc1cccc(Nc2nc(Nc3ccc(N4CCN(C(C)=O)CC4)cc3OC)ncc2C(F)(F)F)c1 [I and III],Result (form of resultant solid),"Acetone, 60° C.",Form I
same,Result (form of resultant solid),"Acetone, RT (ca. 22° C.)",Form I
same,Result (form of resultant solid),"Acetone:water (80:20), 60° C.",Form VIII
same,Result (form of resultant solid),"Acetone:water (80:20), RT (ca. 22° C.)",Form VIII
same,Result (form of resultant solid),"Isopropanol, 60° C.",Form I
same,Result (form of resultant solid),"Isopropanol, RT (ca. 22° C.)",Form I
same,Result (form of resultant solid),"Isopropyl acetate, 60° C.",Form I
same,Result (form of resultant solid),"Isopropyl acetate, RT (ca. 22° C.)",Form I
